{"source": "patent US20160279079A1", "about": "“COMPOSITIONS AND METHODS FOR TREATING BONE DISEASES” (INDIANA UNIVERSITY RESEARCH AND TECHNOLOGY CORPORATION, priority 2013, published 2016)", "assay_type_in_all_cases": "cell-based, mouse", "key": {"p-eIF2α": {"tested_on": "p-eIF2α", "experiment": "Western immunoblotting, p-eIF2α in RAW264.7 cells", "details": "with RANKL", "text": "(§1) METHOD EXAMPLE. Reduction of RANKL-induced NFATcl, c-Fos, TRAP, and OSCAR by guanabenz. […] The normalized level of “1” was defined as the level for the cells that were not treated with RANKL without administration of guanabenz.\n(§2) METHOD EXAMPLE. Western Immunoblotting. Cells were lysed in a radioimmunoprecipitation assay (RIPA) buffer containing protease inhibitors (Santa Cruz Biotechnology, Santa Cruz, Calif., USA) and phosphatase inhibitors (Calbiochem, Billerica, Mass., USA). Isolated proteins were fractionated using 10-15% SDS gels and electro-transferred to Immobilon-P membranes (Millipore, Billerica, Mass., USA). The membrane was incubated for 1 h with primary antibodies followed by 45 min incubation with goat anti-rabbit or anti-mouse IgG conjugated with horseradish peroxidase (Cell Signaling, Danvers, Mass., USA). We used antibodies against ATF4, NFATcl (Santa Cruz), p-eIF2α (Thermo Scientific, Waltham, Mass., USA), eIF2α, caspase 3, cleaved caspase 3, p38 and p-p38 mitogen activated protein kinase (MAPK), extracellular signal-regulated kinase (ERK) and p-ERK, nuclear factor kappa B (NFκB) p65 and p-NFκB p65 (Cell Signaling), and β-actin (Sigma). Protein levels were assayed using a SuperSignal west femto maximum sensitivity substrate (Thermo Scientific), and signal intensities were quantified with a luminescent image analyzer (LAS-3000, Fuji Film, Tokyo, Japan).\nMETHOD EXAMPLE. […]"}, "ATF4": {"tested_on": "ATF4", "experiment": "Western immunoblotting, ATF4 in MC3T3 E1-14 cells", "experimental": "as §2\nMETHOD EXAMPLE. ATF4-mediated elevation of osteocalcin mRNA in MC3T3 E1-14 cells. Salubrinal is an inhibitor of de-phosphorylation of eIF2α. […]"}, "c-Fos": {"tested_on": "c-Fos", "experiment": "Quantitative real-time PCR, c-Fos mRNA in RAW264.7 cells", "experimental": "(§3) METHOD EXAMPLE. Quantitative real-time PCR. Total RNA was extracted using an RNeasy Plus mini kit (Qiagen, Germantown, Md., USA). Reverse transcription was conducted with high capacity cDNA reverse transcription kits (Applied Biosystems, Carlsbad, Calif., USA), and quantitative real-time PCR was performed using ABI 7500 with Power SYBR green PCR master mix kits (Applied Biosystems). We evaluated mRNA levels of ATF4, Osteocalcin (OCN), NFATcl, c-Fos, tartrate-resistant acid phosphatase (TRAP), and osteoclast-associated receptor (OSCAR) with the PCR primers listed in Table 1. GAPDH was used for internal control. The relative mRNA abundance for the selected genes with respect to the level of GAPDH mRNA was expressed as a ratio of Streated/Scontrol, where Streated=mRNA level for the cells treated with chemical agents, and Scontrol=mRNA level for control cells.\nMETHOD EXAMPLE. Partial suppression of mRNA levels of NFATcl, c-Fos, TRAP, and OSCAR by salubrinal. […] On day 2, for instance, the RANKL-driven increase was 9.4±0.5 fold (NFATcl), 1.9±0.1 fold (c-fos), 165±4.2 fold (TRAP), and 467±22 fold (OSCAR). The reduction by 20 μM salubrinal was 46% (NFATcl), 32% (c-fos), 35% (TRAP), and 21% (OSCAR) (FIG. 5A).\nas §1"}, "Osteocalcin (OCN)": {"tested_on": "Osteocalcin (OCN)", "experiment": "Quantitative real-time PCR, osteocalcin mRNA in MC3T3 E1-14 cells", "details": "for increase of the level of osteocalcin mRNA: 5 μM salubrinal", "experimental": "as §3\n(§4) METHOD EXAMPLE. Knockdown of ATF4 and eIF2α by siRNA. Cells were treated with siRNA specific to ATF4 and eIF2α (Life Technologies). Selected target sequences for knockdown of ATF4 and eIF2α were: ATF4, 5′-GCU GCU UAC AUU ACU CUA A-3′; and eIF2α, 5′-CGG UCA AAA UUC GAG CAG A-3′. As a nonspecific control, a negative siRNA (Silencer Select #1, Life Technologies) was used. Cells were transiently transfected with siRNA for ATF4, eIF2α or control in Opti-MEM I medium with Lipofectamine RNAiMAX (Life Technologies). Six hours later, the medium was replaced by regular culture medium. The efficiency of silencing was assessed with immunoblotting or quantitative PCR 48 h after transfection.\nMETHOD EXAMPLE. ATF4-mediated elevation of osteocalcin mRNA in MC3T3 E1-14 cells. Salubrinal is an inhibitor of de-phosphorylation of eIF2α. […] Furthermore, the level of osteocalcin mRNA was increased 3.3±0.5 fold (24 h) and 3.3±0.3 fold (32 h) (FIG. 2B). […] Non-clonal MC3T3 E1 cells also presented elevation of p-eIF2α and ATF4, together with an increase in the mRNA levels of ATF4 and osteocalcin (Supplementary FIG. S2)."}, "NFATc1": {"tested_on": "NFATc1", "experiment": "NFATc1 expression after RNA interference for eIF2α in RAW264.7 cells", "details": "for reduction of NFATc1: 20 μM", "experimental": "as §2, §4\nMETHOD EXAMPLE. Reduction in salubrinal/guanabenz-driven suppression of NFATcl expression by RNA interference for eTF2α. To evaluate the effects of eIF2α on the expression level of NFATcl, RNA interference specific for eIF2α together with a non-specific control (NC) was used (FIG. 10). […] However, the expression of NFATcl was reduced only by 20% in the cells transfected with eIF2α siRNA."}, "[1]": {"details": "cells transfected with the control siRNA"}}}
{"molecule": "O=C(/C=C/c1ccccc1)NC(NC(=S)Nc1cccc2cccnc12)C(Cl)(Cl)Cl", "note": "(stereo not drawn) [salubrinal]", "values": [{"measurement": "level of p-eIF2α", "setting": "p-eIF2α; 20 μM salubrinal, early period (2-4 h)", "result": "increased the level of p-eIF2α"}, {"measurement": "ATF4 expression", "setting": "ATF4; 5 μM salubrinal", "result": "increase in ATF4 expression"}, {"measurement": "reduction of c-fos mRNA level", "setting": "c-Fos; 20 μM salubrinal, day 2 after RANKL", "result": 32, "unit": "%"}, {"measurement": "c-fos mRNA level", "setting": "c-Fos; 0.1-1 μM salubrinal, with RANKL, except on day 4", "result": "did not contribute to significant reduction"}, {"measurement": "increase of the level of osteocalcin mRNA", "setting": "Osteocalcin (OCN); 24 h", "result": "3.3±0.5", "unit": "fold"}, {"measurement": "increase of the level of osteocalcin mRNA", "setting": "Osteocalcin (OCN); 32 h", "result": "3.3±0.3", "unit": "fold"}, {"measurement": "salubrinal-driven elevation of the osteocalcin mRNA level", "setting": "Osteocalcin (OCN); ATF4 expression reduced by RNA interference", "result": "suppressed"}, {"measurement": "reduction of NFATc1", "setting": "NFATc1; cells transfected with eIF2α siRNA", "result": 20, "unit": "%"}, {"measurement": "reduction of NFATc1", "setting": "NFATc1; [1]", "result": 56, "unit": "%"}]}
{"molecule": "N=C(N)N/N=C/c1c(Cl)cccc1Cl", "note": "[guanabenz]", "values": [{"measurement": "temporal expression profile of p-eIF2α", "setting": "p-eIF2α; 20 μM guanabenz", "result": "upregulatcd in 2 h"}, {"measurement": "ATF4", "setting": "ATF4; guanabenz", "result": "increase in p-eIF2α and ATF4"}, {"measurement": "c-Fos mRNA level", "setting": "c-Fos; 20 μM guanabenz, 2 days after RANKL", "result": "reduced"}, {"measurement": "mRNA level of osteocalcin", "setting": "Osteocalcin (OCN); guanabenz dose response", "result": "elevated the mRNA level of osteocalcin in a dose dependent manner"}, {"measurement": "suppressive effect on NFATc1 level", "setting": "NFATc1; 20 μM guanabenz, transfection of eIF2α siRNA", "result": "abolished the suppressive effect"}, {"measurement": "reduction of NFATc1", "setting": "NFATc1; [1]", "result": 43, "unit": "%"}]}
